Source: patent US20120087985A1, “SMALL PEPTIDE SEQUENCES FOR STABILIZING BIOMOLECULES” (Biodel Inc., priority 2010, published 2012)

Experiments:
Glucose oxidase = Glucose oxidase (Aspergillus niger, UniProt P13006); assay: Stabilization and precipitation of glucose oxidase by SPS; format: physicochemical
Glucagon = Glucagon (Homo sapiens, UniProt P01275); assay: Entrapment and precipitation of glucagon in SPS particles; format: physicochemical
Excerpt: Synthesis of SPS and Precipitation of Glucagon
These sequences are soluble at very low pH and form microparticles that trap peptides in solution within the particles. They remain intact at pH 3-5 in the vicinity of their isoelectric point. Solubility increases in the physiological pH range.

[1] = pH of the solution brought to neutral

Glucagon, sequence (P01275 53-81 limits assumed, species assumed): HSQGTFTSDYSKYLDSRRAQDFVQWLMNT
Glucose oxidase, sequence (P13006 17-605, species assumed): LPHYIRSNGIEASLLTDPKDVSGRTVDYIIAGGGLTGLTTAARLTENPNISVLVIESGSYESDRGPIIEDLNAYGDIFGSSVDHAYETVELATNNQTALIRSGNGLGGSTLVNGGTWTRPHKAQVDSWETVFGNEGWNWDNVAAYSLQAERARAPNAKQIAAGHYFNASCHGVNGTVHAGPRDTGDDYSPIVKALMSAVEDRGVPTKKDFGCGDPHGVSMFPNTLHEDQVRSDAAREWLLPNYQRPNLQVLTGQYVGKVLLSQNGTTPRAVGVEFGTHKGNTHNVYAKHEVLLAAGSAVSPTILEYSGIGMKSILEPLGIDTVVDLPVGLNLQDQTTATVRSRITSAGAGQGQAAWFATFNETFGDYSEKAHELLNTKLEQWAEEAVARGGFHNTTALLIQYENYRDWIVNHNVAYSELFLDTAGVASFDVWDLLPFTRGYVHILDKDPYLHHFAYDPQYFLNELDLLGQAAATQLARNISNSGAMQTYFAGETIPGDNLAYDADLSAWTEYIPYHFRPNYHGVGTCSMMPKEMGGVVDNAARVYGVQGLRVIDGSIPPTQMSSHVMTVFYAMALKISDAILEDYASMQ

H-Aspartic Acid-Tryptophan-Aspartic Acid —OH
stabilization and precipitation of glucose oxidase (Glucose oxidase; in aqueous solution, stored along with insulin glargine at a pH of 4): stabilized and precipitated
release of glucose oxidase (Glucose oxidase; [1]): released intact
glucagon remained in the particles (entrapment efficiency) (Glucagon; glucagon entrapped in SPS particles): more than 60%
stabilization of glucagon (Glucagon; in aqueous solution): stabilized it in aqueous solution
release of glucagon (Glucagon; [1]): released the glucagon intact
